For series [1], the system named is dextran-induced aseptic (exudative) phlogosis in rabbit eye. The series is described as follows: Anti-inflammatory activity: dextran-induced aseptic (exudative) phlogosis in rabbit eye. The format is in vivo. Conditions: for eyes without signs of phlogosis out of the total number of eyes treated: 3 drops every 6 hours, 4 treated eyes; for antiinflammatory activity (in words): compared with the corresponding cortisones. How it is done:
9 hyaluronic esters of cortisone, hydrocortisone and fluorocortisone (9 fluorohydrocortisone) identified by the code names HYC1-HYC9 were tested. Table 1 describes these compounds and gives the percentages of the number of carboxylic groups of HY which are esterified with the above corticosteroids, and where applicable the percentage esterified with simple aliphatic alcohols and those salified with alkaline metals (Na):
Aseptic (exudative) phlogosis was induced in 48 rabbits by intraocular injection of dextran (1% in saline, 0.1 ml). The various products were administered by instillation in the right eye (RE) of the rabbits, while in the left eye (LE) only vehicle was instilled.
The treament (3 drops every 6 hours) was begun immediately after the injection of dextran and was continued for 16 days.
Both eyes of each rabbit were observed through a slit lamp. In particular the following were examined: the state of the conjunctiva and corneal epithelium, the anterior chamber (presence of Tyndall effect), state of the iris and of the posterior segment of the eye. With a Goldmann lens, the state of the back of the eye was examined. The presence of signs of inflammation (hyperemia, exudate, cloudiness of the liquids, etc.) was recorded.
Values are expressed as percentages (number of eyes without signs of phlogosis out of the total number of eyes treated). In brackets are the number of treated eyes.

Series [2] in a line: Absorption and bioavailability: plasma levels of hydrocortisone in rats. The format is in vivo, male Sprague-Dawley rats. The procedure:
Male Sprague-Dawley rats, with a body weight of 250-350 gr were used, obtained from Charles River-Calco (Como), fed ad libitum with water and compound feed in pellets, with the code name of 4RF 21, produced by "Italiana Mangimi", licensee of Charles River.
Hydrocortisone was administered in the form of sodium hemisuccinate salt at the dose of 1.34 mg/kg (corresponding to 1 mg/kg of hydrocortisone base) by general intravenous route and at the dose of 1.34 mg/kg and 2.68 mg/ kg (corresponding to 2 mg/ kg of hydrocortisone base) by subcutaneouos route (the i.v. route was considered in order to determine the pharmacokinetic parameters which serve as a comparison for the evaluation of absorption of any other administration route).
The three HYC derivatives were administered by subcutaneous route at the dose of 6.5 and 13 mg/kg (doses corresponding to about 1 and 2 mg/kg in hydrocortisone base). […] All the compounds were injected at a constant volume of 1 ml/kg.
After administration, 0.3 ml of blood was drawn from each animal by cardiac puncture in the presence of anticoagulant (sodium heparin).
Blood drawing times were as follows: *15 mins, 30 mins, 60 mins, 120 mins, 180 min, 300 mins, 360 mins, 420 mins, 480 mins (*limited to the intraveneous route).
The hydrocortisone was dosed by radioimmunoassay method (Cortisolo Kit, Biodata, cod. 10394) using iodate tracing. […] The linearity of the method comes between 1 and 1000 ng/ml. The observation limit is 1 ng/ml.
The dosage of the cortisolemia in the rat is not influenced either by the base levels or by the circadian rhythms of this hormone, as the metabolic pattern of the endogenous glucocorticoid hormones in the rat, leads to the production of corticosterone and not cortisol (see E. L. Green: Biology of the laboratory mouse.)
In Table 3 are reported the results of the average plasma levels of hydrocortisone, after i.v. and s.c. injection (1 and 2 mg/kg). […] In Table 4 are reported the pharmacokinetic parameters of cortisol calculated graphically from the plasmatic decline curves. In Table 3 are reported the average levels of cortisol after subcutaneous administration of the three HYC derivatives at doses of 6.5 and 13 mg/kg (corresponding to about 1 and 2 mg/kg in hydrocortisone base). In Table 4 are reported the pharmacokinetic parameters relative to cortisol calculated graphically with the method of residues from the plasma absorption curve of the three HYC products.

Where [3] appears, read: 10 days from start of phlogosis.
The mark [4] stands for this setting: 12 days from start of phlogosis.
Setting [5] is: 14 days from start of phlogosis.
Where [6] appears, read: 16 days from start of phlogosis.

For the compound `C[C@]12CCC(=O)C=C1CC[C@@H]1[C@@H]2C(=O)C[C@@]2(C)[C@H]1CC[C@]2(O)C(=O)CO` [Cortisone, cortisone, reference compound], the “eyes without signs of phlogosis out of the total number of eyes treated” value is given as 0.0% in series [1] (2 days from start of phlogosis); 0.0% in series [1] (4 days from start of phlogosis); 0.0% in series [1] (6 days from start of phlogosis); 0.0% in series [1] (8 days from start of phlogosis); 25.0% in series [1] (setting [3]); 50.0% in series [1] (setting [4]). The “eyes without signs of phlogosis out of the total number of eyes treated” value in series [1] (setting [5]) and in series [1] (setting [6]) was 100.0% in each case.
As to `C[C@]12CCC(=O)C=C1CC[C@H]1[C@@H]3CC[C@](O)(C(=O)CO)[C@@]3(C)C[C@H](O)[C@@]12F` [Fluorocortis., 9 fluorohydrocortisone, reference compound], the “eyes without signs of phlogosis out of the total number of eyes treated” value in series [1] (2 days from start of phlogosis) is listed as 0.0%; in series [1] (4 days from start of phlogosis) it was 0.0%; in series [1] (6 days from start of phlogosis), 0.0%; in series [1] (8 days from start of phlogosis), 0.0%; in series [1] (setting [3]) it was 25.0%; in series [1] (setting [4]) it was 50.0%. Moreover, the “eyes without signs of phlogosis out of the total number of eyes treated” value in series [1] (setting [5]) and in series [1] (setting [6]) was 100.0% each time.
In general, Tmax refers to the time from dosing to the highest level. The term AUC denotes concentration integrated over time. What is called bioavailability is the share of a dose that reaches the circulation, judged against a reference dose that is usually intravenous. Low values mean little systemic uptake, high ones much systemic uptake. A word on the half-life: it is the time needed for the level to fall by half in the phase considered. A low value points to rapid decline. For the compound `C[C@]12CCC(=O)C=C1CC[C@@H]1[C@@H]2[C@@H](O)C[C@@]2(C)[C@H]1CC[C@]2(O)C(=O)CO` [Hydrocortisone, hydrocortisone, reference compound], the “linearity of kinetics (in words)” value in series [2] (cortisol plasma kinetics, dose dependence) is reported as “linear”. Besides, the “Cmax (in words)” value in series [2] (rat, in vivo) was “the same as the i.v. route levels at the same dose”. Also, the Tmax in series [2] (rat, in vivo, sc) is about 30 min; in series [2] (rat, in vivo, sc, 1 mg/kg), 30 min. This compound had an AUC at 8 h in series [2] (rat, in vivo, sc, 1 mg/kg) of 192 ng·h/mL. The compound also gave a bioavailability in series [2] (rat, in vivo, sc, 1 mg/kg) of 70.3%. Also, the half-life in series [2] (rat, in vivo, sc, 1 mg/kg) was 270 min. This compound had a k el in series [2] (rat, in vivo, sc, 1 mg/kg) of 4.17e-05 s⁻¹. Besides, the “eyes without signs of phlogosis out of the total number of eyes treated” value came to 0.0% in series [1] (2 days from start of phlogosis); 0.0% in series [1] (4 days from start of phlogosis); 0.0% in series [1] (6 days from start of phlogosis); 25.0% in series [1] (8 days from start of phlogosis); 25.0% in series [1] (setting [3]); 50.0% in series [1] (setting [4]). For the same compound, the “eyes without signs of phlogosis out of the total number of eyes treated” value in series [1] (setting [5]) and in series [1] (setting [6]) was 100.0% in each case.
For the compound “(mixed ethanol and cortisone ester (C21) of hyaluronic acid (HY) [HYC4]”, the “eyes without signs of phlogosis out of the total number of eyes treated” value in series [1] (2 days from start of phlogosis) is reported as 0.0%; in series [1] (4 days from start of phlogosis), 0.0%; in series [1] (6 days from start of phlogosis), 25.0%; in series [1] (8 days from start of phlogosis), 50.0%; in series [1] (setting [3]), 50.0%; in series [1] (setting [4]), 100.0%. In addition, the “eyes without signs of phlogosis out of the total number of eyes treated” value in series [1] (setting [5]) and in series [1] (setting [6]) was 100.0% throughout. Further, in series [1], the “antiinflammatory activity (in words)” value is “most efficient of these derivatives”.
With “(mixed) ethanol and fluorocortisone ester (C21) of hyaluronic acid (HY) [HYC6]”, the “eyes without signs of phlogosis out of the total number of eyes treated” value came to 0.0% in series [1] (2 days from start of phlogosis); 0.0% in series [1] (4 days from start of phlogosis); 25.0% in series [1] (6 days from start of phlogosis); 50.0% in series [1] (8 days from start of phlogosis); 50.0% in series [1] (setting [3]); 100.0% in series [1] (setting [4]). The “eyes without signs of phlogosis out of the total number of eyes treated” value in series [1] (setting [5]) and in series [1] (setting [6]) was 100.0% in each case. Also, the “antiinflammatory activity (in words)” value in series [1] is on record as “most efficient of these derivatives”.
In the case of “(partial and mixed) ethanol and cortisone ester of hyaluronic acid (HY) [HYC7]”, the “eyes without signs of phlogosis out of the total number of eyes treated” value in series [1] (2 days from start of phlogosis) worked out at 0.0%; in series [1] (4 days from start of phlogosis), 0.0%; in series [1] (6 days from start of phlogosis) it was 0.0%; in series [1] (8 days from start of phlogosis) it was 25.0%; in series [1] (setting [3]) it was 50.0%; in series [1] (setting [4]), 100.0%. The “eyes without signs of phlogosis out of the total number of eyes treated” value in series [1] (setting [5]) and in series [1] (setting [6]) was 100.0% throughout.
As for “(partial and mixed) ethanol and fluorocortisone esters (C21) of hyaluronic acid (HY) [HYC9]”, the “eyes without signs of phlogosis out of the total number of eyes treated” value in series [1] (2 days from start of phlogosis) turned out to be 0.0%; in series [1] (4 days from start of phlogosis) it was 0.0%; in series [1] (6 days from start of phlogosis), 0.0%; in series [1] (8 days from start of phlogosis), 25.0%; in series [1] (setting [3]), 25.0%; in series [1] (setting [4]) it was 50.0%. In addition, the “eyes without signs of phlogosis out of the total number of eyes treated” value in series [1] (setting [5]) and in series [1] (setting [6]) was 100.0% each time.
“(partial) cortisone ester C21) of hyaluronic acid (HY) [HYC1]”: the “eyes without signs of phlogosis out of the total number of eyes treated” value is on record as 0.0% in series [1] (2 days from start of phlogosis); 0.0% in series [1] (4 days from start of phlogosis); 0.0% in series [1] (6 days from start of phlogosis); 25.0% in series [1] (8 days from start of phlogosis); 50.0% in series [1] (setting [3]); 50.0% in series [1] (setting [4]). In addition, the “eyes without signs of phlogosis out of the total number of eyes treated” value in series [1] (setting [5]) and in series [1] (setting [6]) was 100.0% in each case.
Regarding “(partial) fluorocortisone ester (C21) of hyaluronic acid (HY) [HYC3]”, the “eyes without signs of phlogosis out of the total number of eyes treated” value in series [1] (2 days from start of phlogosis) is reported as 0.0%; in series [1] (4 days from start of phlogosis), 0.0%; in series [1] (6 days from start of phlogosis), 0.0%; in series [1] (8 days from start of phlogosis), 25.0%; in series [1] (setting [3]) it was 25.0%; in series [1] (setting [4]), 100.0%. For the same compound, the “eyes without signs of phlogosis out of the total number of eyes treated” value in series [1] (setting [5]) and in series [1] (setting [6]) was 100.0% throughout.
